In US6967196B1, “Sulfonamide compounds and uses thereof” (Bristol-Myers Squibb Company, priority 1999, dated 2005) one finds IC50 data, which are given here for 34 compounds.

The assay has as its system amyloid β production in transfected H4 (human neuroglioma) cells stably expressing APP constructs. Description: In vitro cell-based assay of inhibitors of amyloid β production (ELISA). Summed up:
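Cells expressing wild-type or variant APP were plated ≥6 h before medium was replaced with compound-containing medium (initial screen 10-100 μM) and incubated ~16 h. Secreted Aβ in medium was quantified by sandwich ELISA (C-terminal-specific mouse monoclonal capture, N-terminal rabbit polyclonal detection) against an Aβ standard curve.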
A general note: An ELISA detects its analyte on a solid surface through an enzyme-linked reagent.

Where [1] appears, read: transfected H4 cells stably expressing APP, approx. 16 h incubation, amyloid β in medium by ELISA, read-out: ACTIVITY (IC50, inhibition of amyloid β production).
[2] abbreviates: Homo sapiens, 16 h, transfected H4 cells expressing APP, approximately 16 hours incubation, amyloid β in medium by ELISA, read-out: ACTIVITY (IC50, inhibition of amyloid β production).
Setting [3] is: transfected H4 cells stably expressing APP, approximately 16 hours incubation, amyloid β in medium by ELISA, read-out: ACTIVITY (IC50, inhibition of amyloid β production).
Setting [4] is: transfected H4 cells stably expressing APP constructs, approximately 16 hours incubation, amyloid β in medium by ELISA, read-out: ACTIVITY (IC50, inhibition of amyloid β production).
The mark [5] stands for this setting: transfected H4 cells stably expressing APP, approximately 16 hours incubation, amyloid β in medium by ELISA, Table B, read-out: ACTIVITY (IC50, inhibition of amyloid β production).
Setting [6] is: Homo sapiens, 16 h, transfected H4 cells stably expressing APP, approximately 16 hours incubation, amyloid β in medium by ELISA, read-out: ACTIVITY (IC50, inhibition of amyloid β production).

Structures can show the parent of a compound that is named as a salt. Where two headings read alike, the source gives them in different places. A value given as a limit tells only on which side of the number the result lay.

As for “2-((1R)-1-{[(4-chlorophenyl)sulfonyl]-2,5-difluoroanilino}ethyl)benzyl sec-butylcarbamate [Example 758]”, the IC50 under setting [1] was 100 to 500 nM.

As for `C[C@H](C(=O)N[C@@H](CO)CSCc1ccccc1)N(c1cc(Cl)ccc1F)S(=O)(=O)c1ccc(Cl)cc1` [Example 1343], the IC50 under setting [2] is more than 500 nM.

Turning to `C[C@H](C(=O)NCCOc1ccccc1)N(c1cc(Cl)ccc1F)S(=O)(=O)c1ccc(Cl)cc1` [Example 1318], the IC50 under setting [2] is more than 500 nM.

Turning to “4-chloro-N-{3-[2-(1-{[(4-chlorophenyl)sulfonyl]-2,5-difluoroanilino}ethyl)phenoxy]propyl}-2-nitrobenzamide [Example 947]”, the IC50 under setting [3] is more than 500 nM.

“N-{3-[2-(1-{[(4-chlorophenyl)sulfonyl]-2,5-difluoroanilino}ethyl)phenoxy]propyl}-4-methylbenzamide [Example 707]”: under setting [1], the IC50 fell in the range of 100 to 500 nM.

Turning to `CC([C@@H]1CCCN1CCS(C)(=O)=O)N(c1cc(Cl)ccc1Cl)S(=O)(=O)c1ccc(Cl)cc1` (stereo partly shown) [Example 1253], the IC50 under setting [4] lay within 100 to 500 nM.

For “2-((1R)-1-{[(4-chlorophenyl)sulfonyl]-2,5-difluoroanilino}ethyl)benzyl 1,2,3,4-tetrahydro-1-naphthalenylcarbamate [Example 660]”, the IC50 under setting [1] lay in the range of 100 to 500 nM.

Take `CC(c1ccccc1OCCCN(C)S(=O)(=O)/C=C/c1ccccc1)N(c1cc(F)ccc1F)S(=O)(=O)c1ccc(Cl)cc1` (stereo not shown) [Example 773, 4-chloro-N-(2,5-difluorophenyl)-N-(1-{2-[3-(methyl{[(E)-2-phenylethyl]sulfonyl}amino)propoxy]phenyl}ethyl)benzenesulfonamide]: under setting [1], the IC50 is 100 to 500 nM.

As for “N-{3-[2-(1-{[(4-chlorophenyl)sulfonyl]-2,5-difluoroanilino}ethyl)phenoxy]propyl}-2,3,4-trifluoro-N-methylbenzamide [Example 670]”, under setting [1], the IC50 is 100 to 500 nM.

For “2-((1R)-1-{[(4-chlorophenyl)sulfonyl]-2,5-difluoroanilino}ethyl)benzyl benzyl[2-(dimethylamino)ethyl]carbamate [Example 838]”, the IC50 under setting [3] fell in the range of 100 to 500 nM.

For `CC(C)[C@H](NC(=O)CCC[C@@H](C)N(c1cc(Cl)ccc1F)S(=O)(=O)c1ccc(Cl)cc1)C(=O)O` [Example 1268, (R)-4-Chloro-N-(5-chloro-2-fluorophenyl)-N-[5-[N-(S)-[1-(carboxy)-2-methylpropyl]amino]-1-methyl-5-oxopentyl]benzenesulfonamide], the IC50 under setting [4] lay within 100 to 500 nM.

In the case of `C[C@H](CCCS(=O)(=O)NC1CCS(=O)(=O)C1)N(c1cc(Cl)ccc1Cl)S(=O)(=O)c1ccc(Cl)cc1` (stereo partly drawn) [Example 1214, 4-chloro-N-[2,5-dichlorophenyl]-N-[4-[[(tetrahydro-1,1-dioxido-3-thienyl)amino]sulfonyl]-1(R)-methylbutyl]benzenesulfonamide], the IC50 (Homo sapiens, 16 h, transfected H4 cells stably expressing APP constructs, approximately 16 hours incubation, amyloid β in medium by ELISA, read-out: ACTIVITY (IC50, inhibition of amyloid β production)) is not above 25 nM.

With `CCN(CC)C(=O)OC[C@@H](C)N(c1cc(Cl)ccc1CO)S(=O)(=O)c1ccc(Cl)cc1` [Example 1283], the IC50 under setting [2] is not above 25 nM.

As to `COC(=O)[C@@H](NC(=O)CC[C@@H](C)N(c1cc(Cl)ccc1F)S(=O)(=O)c1ccc(Cl)cc1)C(C)C` [Example 537, (R)-4-Chloro-N-(5-chloro-2-fluorophenyl)-N-[4-[N-(S)-[1-(methoxycarbonyl)-2-methylpropyl]amino]1-methyl-4-oxobutyl]benzenesulfonamide], under setting [5], the IC50 is 100 to 500 nM.

As for “N-{3-[2-({[(4-chlorophenyl)sulfonyl]-2,5-difluoroanilino}methyl)phenoxy]propyl}-N-methyl-2-naphthamide [Example 810]”, under setting [3], the IC50 fell in the range of 100 to 500 nM.

`CC(c1ccccc1OCCCNC(=O)c1c(F)cccc1F)N(c1cc(F)ccc1F)S(=O)(=O)c1ccc(Cl)cc1` (stereo not shown) [Example 408, N-{3-[2-(1-{[(4-chlorophenyl)sulfonyl]-2,5-difluoroanilino}ethyl)phenoxy]propyl}-2,6-difluorobenzamide]: under “Homo sapiens, 16 h, transfected H4 cells stably expressing APP, approximately 16 hours incubation, amyloid β in medium by ELISA, Table B, read-out: ACTIVITY (IC50, inhibition of amyloid β production)”, the IC50 was 50 to 100 nM.

As to `O=S(=O)(c1ccc(Cl)cc1)N(Cc1ccccc1OCCCSC1CCCCC1)c1cc(F)ccc1F` [Example 869, 4-chloro-N-{2-[3-(cyclohexylsulfanyl)propoxy]benzyl}-N-(2,5-difluorophenyl)benzenesulfonamide], the IC50 under setting [6] fell in the range of 100 to 500 nM.

Turning to `O=C(/C=C/c1ccccc1CN(c1ccccc1)S(=O)(=O)c1ccc(Cl)cc1)N1CCCC1` [Example 923], under setting [3], the IC50 is more than 500 nM.

As to `O=C(c1cccc(F)c1)N1CCCCC1CCOc1ccccc1CN(c1cc(F)ccc1F)S(=O)(=O)c1ccc(Cl)cc1` (stereo not shown) [Example 661, 4-chloro-N-(2,5-difluorophenyl)-N-(2-{2-[1-(3-fluorobenzoyl)-2-piperidinyl]ethoxy}benzyl)benzenesulfonamide], the IC50 (Homo sapiens, 16 h, transfected H4 cells stably expressing APP, approx. 16 h incubation, amyloid β in medium by ELISA, read-out: ACTIVITY (IC50, inhibition of amyloid β production)) is 100 to 500 nM.

Consider `CCS(=O)(=O)CCC[C@@H](C)N(c1cc(F)ccc1F)S(=O)(=O)c1ccc(Cl)cc1` [Example 1166, 4-chloro-N-[2,5-difluorophenyl]-N-[1(R)-methyl-(4-ethylsulfonyl)butyl]benzenesulfonamide], for which the IC50 under setting [4] was not above 25 nM.

Regarding `CSc1ccccc1N(Cc1ccccc1OCCCN1CCCCC1)S(=O)(=O)c1ccc(Cl)cc1` [Example 238, 4-Chloro-N-[2-(methylsulfanyl)phenyl]-N-{2-[3-(1-piperidinyl)propoxy]benzyl}benzenesulfonamide Hydrochloride], the IC50 (read-out: ACTIVITY (inhibitory concentration IC50, inhibition of amyloid β production)) lay in the range of 25 to 50 nM.

Take “methyl(6R)-6-[(2,5-dichlorophenyl)-[(4-chlorophenyl)sulfonyl]-amino]-3-thioheptanoic [Example 1185]”: the IC50 under setting [4] fell in the range of 25 to 50 nM.

`Cc1cccc(C(=O)NCCCOc2ccccc2C(C)N(c2cc(F)ccc2F)S(=O)(=O)c2ccc(Cl)cc2)c1` (stereo not shown) [Example 687]: the IC50 under setting [1] lay in the range of 100 to 500 nM.

On to `CN1C2CCC1[C@@H](COc1ccccc1CN(c1ccccc1)S(=O)(=O)c1ccc(Cl)cc1)C2` (stereo partly drawn) [Example 941, 4-chloro-N-(2-{[(2S)-7-methyl-7-azabicyclo[2.2.1]hept-2-yl]methoxy}benzyl)-N-phenylbenzenesulfonamide hydrochloride], for which, under “Homo sapiens, transfected H4 cells stably expressing APP, approximately 16 hours incubation, amyloid β in medium by ELISA, read-out: ACTIVITY (IC50, inhibition of amyloid β production)”, the IC50 was more than 500 nM.

With `COC(=O)CSCC[C@@H](C)N(c1cc(Cl)ccc1Cl)S(=O)(=O)c1ccc(Cl)cc1` [Example 179, Methyl(6R)-6-[(2,5,dichlorophenyl)[(4-chlorophenyl)sulfonyl]amino]-3-thioheptanoate], the IC50 (Table B, transfected H4 cells stably expressing APP, approximately 16 hours incubation, amyloid β in medium by ELISA, read-out: ACTIVITY (inhibitory concentration IC50, inhibition of amyloid β production)) was not above 25 nM.

Take `CC(C)[S+]([O-])CCC[C@@H](C)N(c1cc(Cl)ccc1CO)S(=O)(=O)c1ccc(Cl)cc1` (stereo partly shown) [Example 1219]: under setting [4], the IC50 was not above 25 nM.

Take `CCCCNC(=O)[C@@H](C)N(c1cc(Cl)ccc1F)S(=O)(=O)c1ccc(Cl)cc1` [Example 1299]: the IC50 under setting [2] is 100 to 500 nM.

For “(2E)-N-{4-[2-(1-{[(4-chlorophenyl)sulfonyl]-2,5-difluoroanilino}ethyl)phenoxy]butyl}-N-ethyl-2-butenamide [Example 514]”, the IC50 under setting [5] is 100 to 500 nM.

On to `COC(=O)C[S+]([O-])CC[C@@H](C)N(c1cc(Cl)ccc1Cl)S(=O)(=O)c1ccc(Cl)cc1` (stereo partly drawn) [Example 1193, methyl(6R)-6-[(2,5-dichlorophenyl)-[(4-chlorophenyl)sulfonyl]-amino]-3-thioheptanoic acid, 3-oxide], for which, under setting [4], the IC50 lay in the range of 100 to 500 nM.

For the compound “N-{2-[2-(1-{[(4-chlorophenyl)sulfonyl]-2,5-difluoroanilino}ethyl)phenoxy]ethyl}-N-methylcyclohexanecarboxamide [Example 511]”, the IC50 under setting [5] lay in the range of 100 to 500 nM.

In the case of `CCS(=O)(=O)CCC[C@@H](C)N(c1cc(Cl)ccc1CO)S(=O)(=O)c1ccc(Cl)cc1` [Example 1217, 4-chloro-N-[5-chloro-2-(hydroxymethyl)phenyl]-N-[1(R)-methyl-(4-ethylsulfonyl)butyl]benzenesulfonamide], under setting [4], the IC50 was not above 25 nM.

Turning to `COC(=O)[C@H](CSCc1cc(F)ccc1[C@@H](C)N(c1cc(F)ccc1F)S(=O)(=O)c1ccc(Cl)cc1)NC(=O)OC(C)(C)C` [Example 468, Methyl (2R)-2-[(tert-butoxycarbonyl)amino]-3-{[2-((1R)-1-{[(4-chlorophenyl)sulfonyl]-2,5-difluoroanilino}ethyl)-5-fluorobenzyl]sulfanyl}propanoate], under setting [5], the IC50 was 50 to 100 nM.

Consider `CC#CCCCN(Cc1ccccc1OCCCN1CCCCC1)S(=O)(=O)c1ccc(Cl)cc1` [Example 842, 4-chloro-N-(4-hexynyl)-N-{2-[3-(1-piperidinyl)propoxy]benzyl}benzenesulfonamide hydrochloride], for which the IC50 under setting [6] lay in the range of 100 to 500 nM.

Regarding `O=S(=O)(c1ccc(Cl)cc1)N(Cc1ccccc1OCCCCCCl)c1ccccc1` [Example 1026, 4-chloro-N-{2-[(5-chloropentyl)oxy]benzyl}-N-phenylbenzenesulfonamide], under setting [6], the IC50 was more than 500 nM.
